# According to patent publication US20080221161A1, “HETEROCYCLIC MODULATORS OF TGR5 FOR TREATMENT OF DISEASE” (KALYPSYS, INC., priority 2007, published 2008):
# Target: T1, human TGR5 (Homo sapiens, UniProt Q8TDU6)
# T1 construct: expressed in transfected cells; host or cells: HEK-293 cells, stably transfected (pcDNA 3.1, Fugene6, geneticin selection)
# T1 sequence (Q8TDU6 1-330): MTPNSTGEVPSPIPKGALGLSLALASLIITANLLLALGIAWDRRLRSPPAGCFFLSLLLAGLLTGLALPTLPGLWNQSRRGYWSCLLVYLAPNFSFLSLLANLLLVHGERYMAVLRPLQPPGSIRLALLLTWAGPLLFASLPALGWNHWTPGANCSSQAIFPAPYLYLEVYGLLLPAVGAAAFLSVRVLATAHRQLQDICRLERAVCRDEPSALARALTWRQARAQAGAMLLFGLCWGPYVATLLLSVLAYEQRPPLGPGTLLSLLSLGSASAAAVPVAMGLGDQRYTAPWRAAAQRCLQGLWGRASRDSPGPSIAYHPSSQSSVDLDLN
# Test: cAMP production assay in HEK293-TGR5 cells
# Format: cell-based
# Settings: HEK293 cells stably expressing human TGR5; 30 minutes stimulation; LANCE cAMP TR-FRET; read-out: cAMP Production in 293-TGR5 Cells EC50
# Protocol: HEK293 cells stably expressing TGR5 (HEK293-TGR5) were established by stably transfecting HEK-293 cells with an expression vector (pcDNA 3.1, Invetrogen) inserted with human TGR5 cDNA using Fugene6 (Roche, Indianapolis, Ind.) according to conventional methods. Cells were grown in DMEM (invitrogen, Carlsbad, Calif.) supplemented with 10% FBS, 1% penicillin/streptomycin under geneticin selection. The presence of TGR5 transcripts in these cells was confirmed using branched DNA (bDNA, Genospectra, Inc., Fremont Calif.) following the manufacturer's protocol and using specific probes for human TGR5. cAMP production assay was performed in high throughput 1536 well format using LANCE cAMP detection kit (Perkin Elmer Inc., Boston, Mass.) according to the manufacturer's protocol. Briefly, HEK293-TGR5 cells were harvested using non-enzymatic cell dissociation buffer (Invitrogen, Carlsbad, Calif.) and suspended in DMEM supplemented with 0.1% FBS at a density of 800,000 cells/ml. Alexa antibody was added to the cell suspension, and 4 ul of the mixture was dispensed in white opaque tissue culture treated Greiner 1536 well plates (USA Scientific, Inc., Ocala, Fla.). After an overnight incubation at 37C in an atmosphere of 10% CO2 and 95% humidity, 1 ul of 5 mM IBMX (Sigma, St. Louis, Mo.) solution in DMEM was dispensed for a final concentration of 1 mM. Cells were then stimulated with test compounds for 30 minutes, after which time 5 ul of detection reagent was added and incubated for 1-7 hrs at room temperature. TR-FRET signal was detected using the Viewlux (Perkin Elmer Inc., Boston Mass.). EC50 values were determined using Graph Pad Prizm analysis (GraphPad Software, Inc).
row,EC50,SMILES
1,> 10 µM,"FC(F)(F)c1ccc(CNCc2cc3ccc(Cl)cc3nc2-c2ccsc2)cc1 [Example 41, 1-(7-Chloro-2-(thiophen-3-yl)quinolin-3-yl)-N-(4-(trifluoromethyl)benzyl)methanamine]"
2,< 10 µM,"Oc1ccc2cc(CNCCc3ccc(Cl)c(Cl)c3)c(-c3ccsc3)nc2c1 [Example 101, 3-((3,4-Dichlorophenethylamino)methyl)-2-(thiophen-3-yl)quinolin-7-ol]"
3,> 10 µM,"COc1ccc2cc(CNCCc3c[nH]c4ccc(O)cc34)c(-c3ccncc3)nc2c1 [Example 93, 3-(2-((7-Methoxy-2-(pyridin-4-yl)quinolin-3-yl)methylamino)ethyl)-1H-indol-5-ol]"
4,> 10 µM,"Oc1ccc2cc(CCNCc3ccc(C(F)(F)F)cc3)c(-c3ccsc3)nc2c1 [Example 107, 2-(Thiophen-3-yl)-3-(2-(4-(trifluoromethyl)benzylamino)ethyl)quinolin-7-ol]"
5,< 10 µM,"Oc1ccc2cc(CNCCc3ccc(Br)cc3)c(-c3ccccc3)nc2c1 [Example 100, 3-((4-Bromophenethylamino)methyl)-2-phenylquinolin-7-ol]"
6,> 10 µM,"O=[N+]([O-])c1ccc2cc(CNCCc3ccc(Br)cc3)c(-c3ccsc3)nc2c1 [Example 127, 2-(4-bromophenyl)-N-((7-nitro-2-(thiophen-3-yl)quinolin-3-yl)methyl)ethanamine]"
7,> 10 µM,"CC(NCCc1ccc(Br)cc1)c1cc2ccc(O)cc2nc1-c1ccsc1 (racemic) [Example 144, (±)-3-(1-(4-Bromophenethylamino)ethyl)-2-(thiophen-3-yl)quinolin-7-ol]"
8,< 10 µM,"COc1ccc2cc(CNCCc3ccc(Cl)cc3)c(-c3ccccc3F)nc2c1 [Example 25, 2-(4-Chlorophenyl)-N-((2-(2-fluorophenyl)-7-methoxyquinolin-3-yl)methyl)ethanamine]"
9,< 10 µM,"Oc1ccc2cc(CNCc3ccc(C(F)(F)F)cc3)c(-c3ccsc3)nc2c1 [Example 79, 2-(Thiophen-3-yl)-3-((4-(trifluoromethyl)benzylamino)methyl)quinolin-7-ol]"
10,> 10 µM,"Oc1ccc2cc(CCNCCc3ccc(Br)cc3)c(-c3ccsc3)nc2c1 [Example 104, 3-(2-(4-Bromophenethylamino)ethyl)-2-(thiophen-3-yl)quinolin-7-ol]"
11,> 10 µM,"Oc1ccc2cc(CNCCc3ccc(Br)cc3)c(-c3cccs3)nc2c1 [Example 108, 3-((4-Bromophenethylamino)methyl)-2-(thiophen-2-yl)quinolin-7-ol]"
12,> 10 µM,"COc1ccc2cc(C(=O)NCc3ccc(C(F)(F)F)cc3)c(-c3ccsc3)nc2c1 [Example 18, 7-methoxy-2-(thiophen-3-yl)-N-(4-(trifluoromethyl)benzyl)quinoline-3-carboxamide]"
13,> 10 µM,"COc1ccc2cc(CN(CCc3ccc(Cl)cc3)S(C)(=O)=O)c(-c3ccsc3)nc2c1 [Example 33, N-(4-Chlorophenethyl)-N-((7-methoxy-2-(thiophen-3-yl)quinolin-3-yl)methyl)methanesulfonamide]"

# Second part, the compound before the results:
row,SMILES,EC50
1,"CSc1ccc2cc(CNCc3ccc(C(F)(F)F)cc3)c(-c3ccsc3)nc2c1 [Example 40, 1-(7-(Methylthio)-2-(thiophen-3-yl)quinolin-3-yl)-N-(4-(trifluoromethyl)benzyl)methanamine]",> 10 µM
2,"COc1ccc2cc(CNCCOc3cccc4ncccc34)c(-c3ccsc3)nc2c1 [Example 121, N-((7-Methoxy-2-(thiophen-3-yl)quinolin-3-yl)methyl)-2-(quinolin-5-yloxy)ethanamine]",< 10 µM
3,"COc1ccc2cc(CNCCc3ccc(F)cc3)c(-c3cccnc3)nc2c1 [Example 8, 2-(4-Fluorophenyl)-N-((7-methoxy-2-(pyridin-3-yl)quinolin-3-yl)methyl)ethanamine]",< 10 µM
4,"COc1ccc2cc(CNC3CCc4ccccc43)c(-c3ccncc3)nc2c1 (racemic) [Example 86, (±)-N-((7-Methoxy-2-(pyridin-4-yl)quinolin-3-yl)methyl)-2,3-dihydro-1H-inden-1-amine]",< 10 µM
5,"COc1ccc2cc(C(=O)NCCc3ccc(Cl)cc3)c(-c3ccsc3)nc2c1 [Example 19, N-(4-Chlorophenethyl)-7-methoxy-2-(thiophen-3-yl)quinoline-3-carboxamide]",< 10 µM
6,"C[C@H](NCc1cc2ccc(O)cc2nc1-c1ccsc1)c1ccc(Br)cc1 [Example 135, (S)-3-((1-(4-Bromophenyl)ethylamino)methyl)-2-(thiophen-3-yl)quinolin-7-ol]",< 10 µM
7,"COc1ccc2cc(CNCc3ccc(N(C)C)cc3)c(-c3cccnc3)nc2c1 [Example 11, 4-(((7-Methoxy-2-(pyridin-3-yl)quinolin-3-yl)methylamino)methyl)-N,N-dimethylaniline]",< 10 µM
8,"COc1ccc2cc(CNCCc3ccc(Br)cc3)c(-c3csc4ccccc34)nc2c1 [Example 73, N-((2-(Benzo[b]thiophen-3-yl)-7-methoxyquinolin-3-yl)methyl)-2-(4-bromophenyl)ethanamine]",< 10 µM
9,"Cc1ccc2cc(CNCc3ccc(C(F)(F)F)cc3)c(-c3ccsc3)nc2c1 [Example 44, 1-(7-Methyl-2-(thiophen-3-yl)quinolin-3-yl)-N-(4-(trifluoromethyl)benzyl)methanamine]",< 10 µM
10,"COc1ccc2cc(CNCc3ccc(C(F)(F)F)cc3)c(-c3ccoc3)nc2c1 [Example 90, 1-(2-(Furan-3-yl)-7-methoxyquinolin-3-yl)-N-(4-(trifluoromethyl)benzyl)methanamine]",> 10 µM
11,"COc1ccc2cc(CNCc3ccc(C(F)(F)F)cc3)c(-c3ccccc3F)nc2c1 [Example 24, 1-(2-(2-Fluorophenyl)-7-methoxyquinolin-3-yl)-N-(4-(trifluoromethyl)benzyl)methanamine]",> 10 µM
12,"COc1ccc2cc(CNCCc3ccc(Cl)c(Cl)c3)c(-c3ccsc3)nc2c1 [Example 61, 2-(3,4-Dichlorophenyl)-N-((7-methoxy-2-(thiophen-3-yl)quinolin-3-yl)methyl)ethanamine]",< 10 µM
13,"COc1ccc2cc(CCNCc3ccc(C(F)(F)F)cc3)c(-c3ccsc3)nc2c1 [Example 106, 2-(7-Methoxy-2-(thiophen-3-yl)quinolin-3-yl)-N-(4-(trifluoromethyl)benzyl)ethanamine]",> 10 µM
14,"COc1ccc2cc(CN[C@H](C)c3ccc(C)cc3)c(-c3ccncc3)nc2c1 [Example 85, (R)—N-((7-Methoxy-2-(pyridin-4-yl)quinolin-3-yl)methyl)-1-p-tolylethanamine]",< 10 µM
15,"COc1ccc2cc(CNC(=O)COc3cccc4ncccc34)c(-c3ccsc3)nc2c1 [Example 119, N-((7-Methoxy-2-(thiophen-3-yl)quinolin-3-yl)methyl)-2-(quinolin-5-yloxy)acetamide]",< 10 µM
16,"COc1ccc2cc(CNCCc3ccc(OC)c(Br)c3)c(-c3ccsc3)nc2c1 [Example 65, 2-(3-Bromo-4-methoxyphenyl)-N-((7-methoxy-2-(thiophen-3-yl)quinolin-3-yl)methyl)ethanamine]",< 10 µM
17,"COc1ccc2cc(CNCc3ccc(C(F)(F)F)cc3)c(-c3ccco3)nc2c1 [Example 77, 1-(2-(Furan-2-yl)-7-methoxyquinolin-3-yl)-N-(4-(trifluoromethyl)benzyl)methanamine]",> 10 µM
18,"COc1ccc2cc(CNCc3ccc([N+](=O)[O-])cc3)c(-c3ccsc3)nc2c1 [Example 67, 1-(7-Methoxy-2-(thiophen-3-yl)quinolin-3-yl)-N-(4-nitrobenzyl)methanamine]",< 10 µM
